Test results from paper PMC3890260 (Chemical science (Royal Society of Chemistry : 2010), 2013).

What was measured:
[1] = biological target: T1, V. cholerae CqsS receptor (Vibrio cholerae serotype O1, UniProt Q9KM66); conditions: cited from earlier work
[2] = biological target: T1, V. cholerae CqsS receptor; assay: CqsS agonist bioassay; assay type: cell-based

T1 sequence (Q9KM66 whole entry, looked up): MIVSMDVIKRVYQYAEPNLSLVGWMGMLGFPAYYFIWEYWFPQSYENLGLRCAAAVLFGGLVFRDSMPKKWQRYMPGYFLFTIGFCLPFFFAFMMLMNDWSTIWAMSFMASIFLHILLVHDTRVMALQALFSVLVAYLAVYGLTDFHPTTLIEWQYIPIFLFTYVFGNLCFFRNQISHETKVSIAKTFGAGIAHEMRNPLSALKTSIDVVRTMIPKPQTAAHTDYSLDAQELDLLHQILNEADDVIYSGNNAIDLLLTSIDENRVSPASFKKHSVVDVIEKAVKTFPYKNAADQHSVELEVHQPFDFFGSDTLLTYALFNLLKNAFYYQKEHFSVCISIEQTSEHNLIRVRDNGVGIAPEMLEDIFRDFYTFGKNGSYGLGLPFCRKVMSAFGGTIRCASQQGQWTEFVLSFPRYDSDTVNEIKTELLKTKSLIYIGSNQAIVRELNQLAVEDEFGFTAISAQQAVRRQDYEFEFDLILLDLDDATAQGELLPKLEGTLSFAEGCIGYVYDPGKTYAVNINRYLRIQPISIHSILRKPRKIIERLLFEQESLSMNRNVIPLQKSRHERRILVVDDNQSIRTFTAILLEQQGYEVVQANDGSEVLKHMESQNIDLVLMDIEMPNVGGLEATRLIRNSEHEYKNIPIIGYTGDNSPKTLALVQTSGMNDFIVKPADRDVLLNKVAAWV

For C/C=C(\N)C(=O)CCCCCCCCC [Ea-CAI-1], the “potency as CqsS agonist compared to CAI-1” value [1] is given as “an order of magnitude more potent”, the EC50 ([2]; CqsS agonist bioassay, mean of triplicate analyses) is given as 4.1 nM and the “% Response (percent maximal bioluminescence with respect to Ea-CAI-1)” value ([2]; Ea-CAI-1 set at 100%) is given as 100%.
